According to patent US20140038959A1, “METHODS OF TREATING TUMORS” (Genentech, Inc., priority 2011, published 2014):
Like-named read-outs stand apart in the source and are kept apart here. Numbered stars: 1 amine (or outer) side, 2 acyl side, 3 side chain; on linkers, the order of the positions; unused ones are H or OH. Bridge positions count the residues as written; N and C are the ends. Square brackets hold non-standard residues; d marks the D form. Peptide text beside a SMILES is read from it. I, II: the chains in the order shown. Hexamethylenediamine = C(CCCN[*:2])CCN[*:1]; Dip = N[C@H](C(=O)O)C(c1ccccc1)c1ccccc1; Chg = N[C@H](C(=O)O)C1CCCCC1; NMeA = CN[C@@H](C)C(=O)O

Legend:
EBC1-shPAK1 cells = assay: pharmarray viability screen, 200 compound library, with or without PAK1 knockdown (CellTiter-Glo); type: cell-based, human; settings: for EC50: Homo sapiens
NCI-H441 = assay: Cell Titer Glo viability after PAK1 siRNA and BV6; type: cell-based, human; settings: transient PAK1 siRNA followed by 5 μM BV6
Description: (§1) FIG. 7—(A) Combinatorial accumulation of cleaved PARP and caspase-3 by PAK1 and IAP antagonism. Cells were incubated with Dox and […] for indicated time points, lysed and then used for Western blot analysis (B) Dual PAK1 and IAP inhibition results in a synergistic decrease in viability of SK-MES-1 (squamous subtype) and NCI-H441 (adenocarcinoma subtype) NSCLC cells. Cellular ATP consumption was determined via Cell Titer Glo assay following transient siRNA-mediated inhibition of PAK1 and 5 μM BV6 treatment as indicated.
(§2) The prosurvival activity of IAP proteins is antagonized by the second mitochondrial activator of caspases (SMAC) (C. Du et al., Cell 2000 102:33-42; A. M. Verhagen, et al. Cell 2000 102:43-53) and a number of antagonists have been described that mimic SMAC amino-terminal peptides to disrupt the association of IAP with SMAC and activated caspase-9 (K. Zobel et al., ACS Chem. Biol. 2006 1:525-533; E. Varfolomeev et al., Cell 2007 131:669-681). In particular, BV6 (C. Ndubaku et al., Future Med. Chem. 2009 1(8):1509) represents one such class of small molecule antagonist that binds to baculovirus TAP repeat (BIR) domains and promotes rapid auto-ubiquitination and proteasomal degradation of c-TAP 1 and cIAP-2 (Zobel supra). […]

SK-MES-1 = assay: Cell Titer Glo viability after PAK1 siRNA and BV6; type: cell-based, human; settings: transient PAK1 siRNA followed by 5 μM BV6
Description: as §1, §2

[1] = test system: SKMES-1, Calu-6, Cal-120 cells; assay: CellTiter-Glo viability after PAK1 and PAK2 siRNA plus MEK and PI3K inhibitors; type: cell-based, human; settings: with PAK1 and PAK2 siRNA, 3 days
Description: FIG. 11—Combinatorial effect of PAK1, PAK2, MEK and PI3K inhibition on tumor cell viability. CellTiter-Glo® (CTG) assays of cellular viability were performed following PAK1 and PAK2 siRNA transfection and compound treatment for 3 days, as indicated.
Taken together, these studies provide strong preclinical support that breast and NSCLC may provide several opportunities for rational combination therapies with PAK1 inhibitors. In one embodiment of the present invention there is provided a method of treating tumors comprising contacting the tumor with a PAK 1 inhibitor and a second anti-hyperproliferative compound.

MDA-MB-175 cells = assay: Annexin V/PI fluorescence-activated cell sorting after IPA-3 for 48 h; type: cell-based, human
Excerpt: FIG. 1-Analysis of PAK1 genomic amplification and functional role in human breast tumors. (A) Genomic Identification of Significant Targets in Cancer (GISTIC) analysis of 11q13 copy number gains. Points are proportionately spaced and arranged in genome order. Vertical line represents chromosome location of the PAK1 gene. […] (B) PAK1 DNA copy and mRNA expression dot plot depicts the relationship of DNA copy number to the 226507 at Affymetrix MAS 5.0 signal for 51 tumor samples. The Pearson correlation statistic (0.75) is shown for the plot. The solid line represents the best-fit line through these points. (C) Increasing proportion of Annexin V-positive cells following knockdown of PAK1 expression is shown for 3 breast cancer cell lines with focal PAK1 genomic amplification, MDA-MB-175, HCC1500 and MDA-MB-134 IV. Cells were harvested 3-5 days following transient transfection of pooled siRNA oligonucleotides. (D) Fluorescence-activated cell sorting analysis for Annexin V/PI. MDA-MB-175 cells were cultured in the presence or absence of IPA-3 for 48 h. Annexin V/PI staining was then done to assess apoptosis/necrosis. […]
To ascertain the role of PAK1 in cell survival, the quantity of cytoplasmic histone-associated DNA fragments was quantified using the Cell Death Detection ELISA Plus kit from Roche (Mannheim, Germany). […]

EBC-1 cells [2] = assay: cell killing by pharmacological PAK or Rac1 inhibitors combined with IAP inhibition; type: cell-based, human; settings: pharmacological inhibitors of PAK or Rac1 catalytic activity; FIG. 7A
Excerpt: The prosurvival activity of IAP proteins is antagonized by the second mitochondrial activator of caspases (SMAC) (C. Du et al., Cell 2000 102:33-42; A. M. Verhagen, et al. Cell 2000 102:43-53) and a number of antagonists have been described that mimic SMAC amino-terminal peptides to disrupt the association of IAP with SMAC and activated caspase-9 (K. Zobel et al., ACS Chem. Biol. 2006 1:525-533; E. Varfolomeev et al., Cell 2007 131:669-681). In particular, BV6 (C. Ndubaku et al., Future Med. Chem. 2009 1(8):1509) represents one such class of small molecule antagonist that binds to baculovirus TAP repeat (BIR) domains and promotes rapid auto-ubiquitination and proteasomal degradation of c-TAP 1 and cIAP-2 (Zobel supra). Consistent with the small molecule screening data, strong combinatorial activity was confirmed for dual inhibition of PAK1 and IAP in EBC-1 cells (FIG. 5A). […] To further explore this apparent synergy we investigated possible molecular mechanisms of PAK1 and IAP inhibition on the induction of apoptosis. […] Lastly, additional NSCLC cell lines, including those that are only minimally responsive to the activity of either single agent, were examined for anti-tumor efficacy resulting from combined inhibition of PAK1 and IAP.

EBC-1 cells [3] = assay: PF-3758309 with BV6, in vitro combination efficacy, 4-day CellTiterGlo viability assay (Calcusyn); type: cell-based, human; settings: Chou and Talalay method, CI ≦0.3 = strong synergy
Description: FIG. 10—Combination of ATP-competitive pan-PAK inhibitor PF-3758309 (B. W. Murray et al. Proc. Nat. Acad. Sci. USA 2010 107(20):9446-9471 and IAP small molecule antagonist results in apoptosis of squamous NSCLC cells. (A) Catalytic inhibition of PAK1 via PF-3758309 treatment was tested with BV6 for in vitro combination efficacy in EBC-1 cells using a 4-day CellTiterGlo viability assay. Calcusyn, a program utilizing the Chou and Talalay (Chou T C, Talalay P. Quantitative analysis of dose-effect relationships: the combined effects of multiple drugs or enzyme inhibitors. Adv. Enzyme Regul. 1984; 22:27-55) method of calculating synergy, was used to calculate the combination index and, thus, determine the level of synergy. Strong synergy, as indicated by combination index (CI) values ≦0.3, was observed (CI=0.113).
A determination of a synergistic interaction between a PAK1 inhibitor and a second anti-hyperproliferative agent may be based on the results obtained from the assays described herein. The combinations provided by this invention have been evaluated in several assay systems, and the data can be analyzed utilizing a standard program for quantifying synergism, additivism, and antagonism among anticancer agents. The program preferably utilized is that described by Chou and Talalay, in “New Avenues in Developmental Cancer Chemotherapy,” Academic Press, 1987, Chapter 2. […]

[4] = test system: Cells transfected with XIAP-specific siRNA; assay: Cell Titer Glo viability after XIAP siRNA and PAK SMI; type: cell-based; settings: XIAP siRNA 48 h, then PAK SMI 72 h; p<0.0001
Description: Cells were transfected with non-targeting control (NTC) or XIAP-specific siRNA oligonucleotides for 48 h prior to treatment with DMSO or PAK SMI as indicated for an additional 72 h. Cell viability was determined via Cell Titer Glo assay and results represent mean±standard deviation from three experiments. (B) Combined antagonism of XIAP and PAK1 promotes efficient cleavage of PARP and caspase-3. XIAP siRNA oligonucleotides were transfected for 72 h prior to treatment with DMSO or […] PAK SMI.

[5] = single agent vs combination with PAK1 knockdown
[6] = 72 h, read-out: Single agent EC50
[7] = EBC-1-shPAK1 cells without PAK1 knockdown, 72 hr compound treatment, read-out: Single agent EC50
[8] = PAK1 knockdown shRNA (300 ng/mL doxycycline 3 days prior) and compound, 72 hr, read-out: Combo PAKi EC50

O=c1[nH]c2ccccc2n1C1CCN(Cc2ccc(-c3nc4cc5[nH]cnc5cc4nc3-c3ccccc3)cc2)CC1 [Akt inhibitor VIII]
Fold change in EC50 (EBC1-shPAK1 cells; [5]): 1.58

CN[C@@H](C)C(=O)N[C@H](C(=O)N1CCC[C@H]1C(=O)N[C@H](C(=O)NCCCCCCNC(=O)[C@@H](NC(=O)[C@@H]1CCCN1C(=O)[C@@H](NC(=O)[C@H](C)NC)C1CCCCC1)C(c1ccccc1)c1ccccc1)C(c1ccccc1)c1ccccc1)C1CCCCC1 [BV6] (I: H-[NMeA][Chg]P[Dip] / II: H-[NMeA][Chg]P[Dip]; linker I:C-II:C via Hexamethylenediamine)
Fold change in EC50 (EBC1-shPAK1 cells; [5]): 57.54 | cell viability (NCI-H441): significant reduction | cell viability (SK-MES-1): significant reduction

CS(=O)(=O)N1CCN(Cc2cc3nc(-c4cccc5[nH]ncc45)nc(N4CCOCC4)c3s2)CC1 [GDC-0941]
combinatorial efficacy, reduced cellular viability [1]: Combinatorial efficacy

Oc1ccc2ccccc2c1SSc1c(O)ccc2ccccc12 [IPA-3]
induction of apoptosis, fold increase (Annexin-V/propidium iodide) (MDA-MB-175 cells): 7 fold | cell killing combined with IAP inhibition (EBC-1 cells [2]): enhanced cell killing

CCN(CC)CCCC(C)Nc1nc(C)cc(Nc2ccc3nc(C)cc(N)c3c2)n1 (stereo not drawn) [NSC23766]
cell killing combined with IAP inhibition (EBC-1 cells [2]): enhanced cell killing

Cc1nc(Nc2n[nH]c3c2CN(C(=O)N[C@H](CN(C)C)c2ccccc2)C3(C)C)c2sccc2n1 [PF-3758309]
combination index (CI) (EBC-1 cells [3]): 0.113 | cell killing combined with IAP inhibition (EBC-1 cells [2]): enhanced cell killing | proapoptotic activity with XIAP down-regulation [4]: potentiates the proapoptotic activity

N#CC(=C(/N)Sc1ccccc1N)/C(C#N)=C(\N)Sc1ccccc1N [U0126]
Fold change in EC50 (EBC1-shPAK1 cells): 8.45 | EC50 (EBC1-shPAK1 cells; [6]): 19.5 µM | EC50 (EBC1-shPAK1 cells; read-out: Combo PAKi EC50): 2.3 µM

COc1cc2c(Nc3ccc(Br)cc3F)ncnc2cc1OCC1CCN(C)CC1 [ZD6474]
EC50 (EBC1-shPAK1 cells; [7]): ≥ 20 µM | EC50 (EBC1-shPAK1 cells; [8]): 6.88 µM | Fold change in EC50 (EBC1-shPAK1 cells; [5]): 2.91

CN(C)c1nc(N(C)C)nc(N(C)C)n1 [altretamine]
EC50 (EBC1-shPAK1 cells; [7]): ≥ 20 µM | EC50 (EBC1-shPAK1 cells; [8]): 3.94 µM | Fold change in EC50 (EBC1-shPAK1 cells; [5]): 5.07

Cc1nc(Nc2ncc(C(=O)Nc3c(C)cccc3Cl)s2)cc(N2CCN(CCO)CC2)n1 [dasatinib]
EC50 (EBC1-shPAK1 cells; [7]): 8.29 µM | EC50 (EBC1-shPAK1 cells; [8]): 1.53 µM | Fold change in EC50 (EBC1-shPAK1 cells; [5]): 5.43

C#Cc1cccc(Nc2ncnc3cc(OCCOC)c(OCCOC)cc23)c1 [erlotinib]
Fold change in EC50 (EBC1-shPAK1 cells): 15.02 | EC50 (EBC1-shPAK1 cells; [6]): ≥ 20 µM | EC50 (EBC1-shPAK1 cells; read-out: Combo PAKi EC50): 1.56 µM

CS(=O)(=O)CCNCc1ccc(-c2ccc3ncnc(Nc4ccc(OCc5cccc(F)c5)c(Cl)c4)c3c2)o1 [lapatinib]
EC50 (EBC1-shPAK1 cells; [7]): 6.31 µM | EC50 (EBC1-shPAK1 cells; [8]): 0.86 µM | Fold change in EC50 (EBC1-shPAK1 cells; [5]): 7.34

O=C1[O][Pt]2([NH][C@@H]3CCCC[C@H]3[NH]2)[O]C1=O [oxaliplatin]
Fold change in EC50 (EBC1-shPAK1 cells): 4.23
